What follows are compounds tested against Glutamyl aminopeptidase (Oryctolagus cuniculus) (assay: Inhibition of aminopeptidase A (APA)).

Ki [nM] | SMILES
2400 | NC(CS)c1cccc(C(=O)O)c1 (configuration not stated) [1-(3-Carboxy-phenyl)-2-mercapto-ethyl-ammonium]
> 3000 | NC(CS)CC1CCCC(C(=O)O)C1 (configuration not stated) [2-(3-Carboxy-cyclohexyl)-1-mercaptomethyl-ethyl-ammonium]
2700 | NC(CS)Cc1ccc(C(=O)O)cc1 (configuration not stated) [2-(4-Carboxy-phenyl)-1-mercaptomethyl-ethyl-ammonium]
840 | NC(CS)Cc1cccc(C(=O)O)c1 (configuration not stated) [3-(2-Amino-3-mercapto-propyl)-benzoic acid]
> 3000 | NC(CS)c1ccc(C(=O)O)cc1 (configuration not stated) [4-(1-Amino-2-mercapto-ethyl)-benzoic acid]
1900 | NC(CS)CC1CCC(C(=O)O)CC1 (configuration not stated) [4-(2-Amino-3-mercapto-propyl)-cyclohexanecarboxylic acid]
2300 | N[C@@H](CS)CCC(=O)O [(R)-4-Amino-5-mercapto-pentanoic acid]
2000 | N[C@H](CCS)CCC(=O)O [(S)-4-Amino-6-mercapto-hexanoic acid]
2800 | NC(CS)CC1CCC(CC(=O)O)CC1 (configuration not stated) [[4-(2-Amino-3-mercapto-propyl)-cyclohexyl]-acetic acid]
2200 | NC(CS)Cc1ccc(CC(=O)O)cc1 (configuration not stated) [[4-(2-Amino-3-mercapto-propyl)-phenyl]-acetic acid]

The compounds below were run against Aminopeptidase N (Sus scrofa) (UniProt P15145) (assay: Inhibitory potency against aminopeptidase N (APN)).
Chain of Aminopeptidase N (Sus scrofa) (P15145 whole entry, looked up): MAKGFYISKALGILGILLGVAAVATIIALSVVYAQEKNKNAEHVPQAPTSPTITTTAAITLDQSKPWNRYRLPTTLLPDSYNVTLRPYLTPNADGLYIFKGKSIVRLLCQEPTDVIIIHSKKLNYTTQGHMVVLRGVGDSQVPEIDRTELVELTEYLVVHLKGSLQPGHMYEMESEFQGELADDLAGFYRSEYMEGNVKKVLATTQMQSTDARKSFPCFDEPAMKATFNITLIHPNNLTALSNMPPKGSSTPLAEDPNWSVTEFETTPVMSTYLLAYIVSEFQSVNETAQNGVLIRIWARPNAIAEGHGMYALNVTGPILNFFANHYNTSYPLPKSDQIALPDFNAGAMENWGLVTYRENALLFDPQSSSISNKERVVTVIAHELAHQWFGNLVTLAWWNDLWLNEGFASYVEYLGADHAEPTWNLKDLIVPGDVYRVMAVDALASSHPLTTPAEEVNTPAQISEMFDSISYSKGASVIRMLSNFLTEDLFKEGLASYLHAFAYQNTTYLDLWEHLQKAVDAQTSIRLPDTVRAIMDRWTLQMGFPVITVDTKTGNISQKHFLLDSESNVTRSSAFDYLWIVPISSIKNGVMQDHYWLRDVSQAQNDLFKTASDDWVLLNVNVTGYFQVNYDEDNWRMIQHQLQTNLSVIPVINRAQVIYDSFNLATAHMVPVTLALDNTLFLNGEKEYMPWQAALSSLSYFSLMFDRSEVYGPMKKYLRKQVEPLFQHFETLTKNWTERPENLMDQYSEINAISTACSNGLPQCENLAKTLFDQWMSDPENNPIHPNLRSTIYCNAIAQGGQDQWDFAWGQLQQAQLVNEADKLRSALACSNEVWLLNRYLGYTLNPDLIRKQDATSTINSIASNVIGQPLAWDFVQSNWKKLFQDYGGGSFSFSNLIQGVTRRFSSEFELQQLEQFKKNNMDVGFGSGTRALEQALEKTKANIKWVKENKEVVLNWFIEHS

SMILES | IC50 [nM]
NC(Cc1ccccc1)CP(=O)(O)O (configuration not stated) [1-Benzyl-2-phosphono-ethyl-ammonium] | 500000
NC(CC(=O)O)Cc1ccccc1 (configuration not stated) [3-Amino-4-phenyl-butyric acid] | 800000
